The values below come from patent US8361487B1, “Ant controllers and method for application thereof” (BASF Aktiengesellschaft, priority 1999, dated 2013).

The subject of this assay is Coptotermes formosanus Shiraki. Nature of the assay: Test Example 1: termite-killing test on treated filter paper. Format: in vivo. The following applies: mortality class; 1 ml of a 500 ppm solution on filter paper, seven days after inoculation, triplicate group of 10 insects. As to the method:
A filter paper was spread in a glass dish having a diameter of 9 cm, onto which was dropped 1 ml of a 500 ppm solution of the ant controller of the present invention. Then, the filter paper was inoculated with Coptotermes formosanus Shiraki. Seven days after the inoculation, percentage of dead insects was investigated, from which mortality was calculated. The test was carried out with triplicate group of 10 insects.
For `CC(C(=NNC(=O)Nc1ccc(OC(F)(F)F)cc1)c1ccccc1)c1ccccc1` (mixture of isomers) [Compound 50], the Termite-killing effect entry is reported as “A (100)”.

For `O=C(NN=C(c1ccccc1)C(O)c1ccc(Cl)cc1)Nc1ccc(OC(F)(F)F)cc1` (racemic) [Compound 61], the Termite-killing effect entry is “A (100)”.

As for `N#Cc1ccc(C(O)C(=NNC(=O)Nc2ccc(Cl)cc2)c2ccccc2)cc1` (racemic) [Compound 62], the Termite-killing effect entry is reported as “A (100)”.

Consider `N#Cc1ccc(C(O)C(=NNC(=O)Nc2ccc(OC(F)(F)F)cc2)c2ccccc2)cc1` (racemic) [Compound 63], for which the Termite-killing effect result is “A (100)”.

Consider `CC(C(=NNC(=O)Nc1ccc(Cl)cc1)c1ccccc1)c1ccccc1` (racemic) [Compound 64], for which the Termite-killing effect result was “A (100)”.

As to `CC(C(=NNC(=S)Nc1ccc(OC(F)(F)F)cc1)c1ccccc1)c1ccccc1` (racemic) [Compound 65], the Termite-killing effect result is on record as “C (89-80)”.

In the case of `COC(C(=NNC(=O)Nc1ccc(Cl)cc1)c1ccccc1)c1ccccc1` (racemic) [Compound 66], the Termite-killing effect result is “A (100)”.

As for `COC(C(=NNC(=O)Nc1ccc(OC(F)(F)F)cc1)c1ccccc1)c1ccccc1` (racemic) [Compound 67], the Termite-killing effect entry is “A (100)”.

Consider `CC(C)OC(C(=NNC(=O)Nc1ccc(Cl)cc1)c1ccccc1)c1ccccc1` (racemic) [Compound 68], for which the Termite-killing effect result was “A (100)”.

For the molecule `CC(C)OC(C(=NNC(=O)Nc1ccc(OC(F)(F)F)cc1)c1ccccc1)c1ccccc1` (racemic) [Compound 69], the Termite-killing effect result was “B (99-90)”.

With `CC(C)COC(C(=NNC(=O)Nc1ccc(Cl)cc1)c1ccccc1)c1ccccc1` (racemic) [Compound 70], the Termite-killing effect result is “A (100)”.

As for `CC(C)COC(C(=NNC(=O)Nc1ccc(OC(F)(F)F)cc1)c1ccccc1)c1ccccc1` (racemic) [Compound 71], the Termite-killing effect entry was “A (100)”.

In the case of `CC(=O)OC(C(=NNC(=O)Nc1ccc(OC(F)(F)F)cc1)c1ccccc1)c1ccccc1` (racemic) [Compound 72], the Termite-killing effect entry is “A (100)”.

For `O=C(NN=C(c1ccccc1)C(OC(=O)c1ccccc1)c1ccccc1)Nc1ccc(OC(F)(F)F)cc1` (racemic) [Compound 73], the Termite-killing effect result is reported as “A (100)”.

Regarding `CN(N=C(c1ccccc1)C(O)c1ccccc1)C(=O)Nc1ccc(Cl)cc1` (racemic) [Compound 74], the Termite-killing effect entry was “A (100)”.

As for `CN(N=C(c1ccccc1)C(O)c1ccccc1)C(=O)Nc1ccc(OC(F)(F)F)cc1` (racemic) [Compound 75], the Termite-killing effect entry was “A (100)”.

Consider `O=C(NNC(Cc1ccccc1)c1ccccc1)Nc1ccc(Cl)cc1` (racemic) [Compound 84], for which the Termite-killing effect entry is “A (100)”.

With `O=C(NNC(Cc1ccccc1)c1ccccc1)Nc1ccc(OC(F)(F)F)cc1` (racemic) [Compound 85], the Termite-killing effect entry is given as “C (89-80)”.

Turning to `O=C(NNC(Cc1ccc(Cl)cc1)c1ccccc1)Nc1ccc(OC(F)(F)F)cc1` (racemic) [Compound 86], the Termite-killing effect result is reported as “A (100)”.

Regarding `N#Cc1ccc(CC(NNC(=O)Nc2ccc(OC(F)(F)F)cc2)c2ccccc2)cc1` (racemic) [Compound 87], the Termite-killing effect entry was “C (89-80)”.

As to `O=C(NNC(Cc1ccc([N+](=O)[O-])cc1)c1ccccc1)Nc1ccc(OC(F)(F)F)cc1` (racemic) [Compound 88], the Termite-killing effect entry was “A (100)”.

For `O=C(NNC(Cc1ccc(Cl)cc1)c1cccc(F)c1)Nc1ccc(OC(F)(F)F)cc1` (racemic) [Compound 89], the Termite-killing effect entry was “B (99-90)”.

For the molecule `O=C(NNC(Cc1ccc(Cl)cc1)c1cccc(Cl)c1)Nc1ccc(OC(F)(F)F)cc1` (racemic) [Compound 90], the Termite-killing effect result was “A (100)”.

On to `N#Cc1ccc(CC(NNC(=O)Nc2ccc(OC(F)(F)F)cc2)c2cccc(C(F)(F)F)c2)cc1` (single isomer, unassigned) [Compound 117], for which the Termite-killing effect result is “A (100)”.
